Source: the supplement of paper PMC10307832

Key:
Experiment in all cases: relative viability (nuclei count vs DMSO), 5 days (fraction); higher = more cells survive
Nelarabine + Pictilisib = compound: COc1nc(N)nc2c1ncn2[C@@H]1O[C@H](CO)[C@@H](O)[C@@H]1O [Nelarabine] + CS(=O)(=O)N1CCN(Cc2cc3nc(-c4cccc5[nH]ncc45)nc(N4CCOCC4)c3s2)CC1 [Pictilisib] (partner 1 µM)
In short: (§1)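 The day after seeding in 1536-well plates, lung cancer cell lines were treated by pin tool with a single drug, or with a fixed anchor-drug dose together with five library-drug doses (not always all listed) in √10 steps. After 5 days, a combined fix-and-stain solution (final 0.05% Triton X-100, 1% formaldehyde, 1 ug/ml Hoechst) was added. Nuclei counted on 4× images gave relative viability as treated counts over vehicle counts, reported as the median of duplicate plates.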

Adavosertib + Trametinib = compound: C=CCn1c(=O)c2cnc(Nc3ccc(N4CCN(C)CC4)cc3)nc2n1-c1cccc(C(C)(C)O)n1 [Adavosertib] + CC(=O)Nc1cccc(-n2c(=O)n(C3CC3)c(=O)c3c(Nc4ccc(I)cc4F)n(C)c(=O)c(C)c32)c1 [Trametinib] (partner 0.02 µM)
In short: as §1

Adavosertib + Luminespib = compound: C=CCn1c(=O)c2cnc(Nc3ccc(N4CCN(C)CC4)cc3)nc2n1-c1cccc(C(C)(C)O)n1 [Adavosertib] + CCNC(=O)c1noc(-c2cc(C(C)C)c(O)cc2O)c1-c1ccc(CN2CCOCC2)cc1 [Luminespib] (partner 0.01 µM)
In short: as §1

Nelarabine + Olaparib = compound: COc1nc(N)nc2c1ncn2[C@@H]1O[C@H](CO)[C@@H](O)[C@@H]1O [Nelarabine] + O=C(c1cc(Cc2n[nH]c(=O)c3ccccc23)ccc1F)N1CCN(C(=O)C2CC2)CC1 [Olaparib] (partner 8 µM)
In short: as §1

Cell Line | relative viability (Nelarabine + Pictilisib; first compound 0.01 µM) | relative viability (Nelarabine + Pictilisib; first compound 0.03162 µM) | relative viability (Nelarabine + Pictilisib; first compound 0.1 µM) | relative viability (Nelarabine + Pictilisib; first compound 0.3162 µM) | relative viability (Nelarabine + Pictilisib; first compound 1 µM) | relative viability (Adavosertib + Trametinib; first compound 0.01 µM) | relative viability (Adavosertib + Trametinib; first compound 0.03162 µM) | relative viability (Adavosertib + Trametinib; first compound 0.1 µM) | relative viability (Adavosertib + Trametinib; first compound 0.3162 µM) | relative viability (Adavosertib + Luminespib; first compound 0.01 µM) | relative viability (Adavosertib + Luminespib; first compound 0.03162 µM) | relative viability (Adavosertib + Luminespib; first compound 0.1 µM) | relative viability (Adavosertib + Luminespib; first compound 0.3162 µM) | relative viability (Nelarabine + Olaparib; first compound 0.01 µM) | relative viability (Nelarabine + Olaparib; first compound 0.03162 µM) | relative viability (Nelarabine + Olaparib; first compound 0.1 µM) | relative viability (Nelarabine + Olaparib; first compound 0.3162 µM) | relative viability (Nelarabine + Olaparib; first compound 1 µM)
NCI-H2085 | 0.462 | 0.372 | 0.536 | 0.46 | 0.455 | 0.544 | 0.568 | 0.435 | 0.524 | 0.61 | 0.411 | 0.46 | 0.35 | 0.815 | 0.768 | 0.731 | 0.802 | 0.74
NCI-H727 | 0.581 | 0.476 | 0.348 | 0.397 | 0.302 | 0.427 | 0.383 | 0.396 | 0.385 | 0.299 | 0.363 | 0.301 | 0.24 | 0.697 | 0.559 | 0.636 | 0.731 | 0.656
NCI-H596 | 0.402 | 0.445 | 0.399 | 0.376 | 0.446 | 0.81 | 0.79 | 0.678 | 0.796 | 0.911 | 1.2 | 0.958 | 0.76 | 0.654 | 0.708 | 0.759 | 0.756 | 0.728
PC-3 [JPC-3] | 0.599 | 0.853 | 0.7 | 0.895 | 0.749 |  | 0.667 | 0.761 | 0.746 | 0.665 | 0.746 | 0.657 | 0.724 | 1.46 | 1.2 | 1.1 | 1.25 | 1.22
COR-L23 | 1.13 | 0.635 | 0.738 | 0.934 | 0.864 | 0.622 | 0.577 | 0.565 | 0.251 | 0.614 | 0.61 | 0.667 | 0.232 | 0.432 | 0.31 | 0.301 | 0.373 | 0.363
ChaGo-K-1 | 0.699 | 0.611 | 0.934 | 0.678 | 0.743 | 0.884 | 0.844 | 0.901 | 0.883 | 0.502 | 0.683 | 0.489 | 0.719 | 0.324 | 0.404 | 0.452 | 0.433 | 0.428
RERF-LC-KJ | 0.582 | 0.652 | 0.559 | 0.578 | 0.422 | 0.782 | 0.853 | 0.851 | 0.929 | 1.32 | 1.33 | 1.29 | 1.16 | 0.946 | 1 | 1.11 | 0.987 | 0.852
NCI-H460 | 0.408 | 0.431 | 0.379 | 0.407 | 0.337 | 0.179 | 0.137 | 0.197 | 0.124 | 0.0322 | 0.0312 | 0.0317 | 0.0275 | 0.748 | 0.581 | 0.479 | 0.552 | 0.521
NCI-H1915 | 1.08 | 0.939 | 1.04 | 0.959 | 1.01 | 0.329 | 0.338 | 0.322 | 0.33 | 0.912 | 0.729 | 0.752 | 0.617 | 0.25 | 0.264 | 0.261 | 0.251 | 0.24
COR-L 105 | 0.341 | 0.4 | 0.352 | 0.424 | 0.39 | 0.436 | 0.463 | 0.48 | 0.347 | 1.03 | 0.698 | 0.962 | 0.774 | 0.554 | 0.666 | 0.592 | 0.697 | 0.541
NCI-H441 | 0.488 | 0.376 | 0.543 | 0.461 | 0.582 | 0.432 | 0.509 | 0.373 | 0.423 | 0.291 | 0.346 | 0.418 | 0.276 | 0.5 | 0.518 | 0.561 | 0.677 | 0.697
LCLC-103H | 0.756 | 0.811 | 0.62 | 0.671 | 0.652 | 0.641 | 0.688 | 0.668 | 0.7 | 0.865 | 1.05 | 0.892 | 0.837 | 0.951 | 0.754 | 0.838 | 0.762 | 0.815
HARA | 0.457 | 0.346 | 0.336 | 0.452 | 0.354 | 0.696 | 0.729 | 0.75 | 0.611 | 0.781 | 0.795 | 0.845 | 0.366 | 0.843 | 0.569 | 0.746 | 0.834 | 0.636
NCI-H1755 | 0.488 | 0.429 | 0.507 | 0.429 | 0.522 | 0.818 | 0.78 | 0.818 | 0.744 | 0.417 | 0.616 | 0.342 | 0.531 | 0.878 | 0.966 | 0.931 | 0.938 | 0.927
LXF-289 | 0.739 | 0.841 | 0.845 | 0.801 | 0.751 | 0.746 | 0.696 | 0.701 | 0.678 | 0.598 | 0.651 | 0.654 | 0.783 | 1.2 | 1.13 | 1.01 | 1.04 | 1.01
HCC-44 | 0.708 | 0.829 | 0.569 | 0.597 | 0.529 | 1.08 | 1.05 | 1.19 | 1.12 | 0.982 | 1.01 | 0.968 | 1.3 | 1.07 | 0.972 | 0.948 | 0.975 | 0.986
HOP-62 | 0.833 | 0.743 | 0.815 | 0.574 | 0.706 | 0.357 | 0.406 | 0.356 | 0.384 | 0.997 | 0.906 | 0.909 | 0.945 | 0.479 | 0.315 | 0.283 | 0.368 | 0.458
NCI-H2126 | 0.517 | 0.48 | 0.453 | 0.483 | 0.5 | 0.571 | 0.528 | 0.619 | 0.619 | 0.831 | 0.832 | 0.897 | 0.93 | 1.05 | 0.981 | 0.951 | 0.961 | 0.967
